Experiments:
E. coli MS 200-1 [1] = test: Growth-based phenotypic high-throughput screen (OD600 Z-scores, choline vs glycerol NCE medium); type: cell-based, Escherichia coli MS 200-1; conditions: 20 µg/mL; for Z-score from HTS, Zcho at T1 / Z-score from HTS, Zcho at T2: choline NCE medium; for Z-score from HTS, Zcho at T1 / Z-score from HTS, Zgly at T1: 7 h; for Z-score from HTS, Zcho at T2 / Z-score from HTS, Zgly at T2: 20 h; for Z-score from HTS, Zgly at T1 / Z-score from HTS, Zgly at T2: glycerol NCE medium
Description: The primary screen was performed in duplicate using the ChemDiv7 commercial library from the Institute of Chemistry and Cell Biology–Longwood (ICCB-L) Screening Facility, consisting of 49,128 compounds (Fig. 1D). Each compound was tested at a concentration of 20 µg/mL.
NCE media was adapted based on the “no carbon E” media as previously described ([14]), and contains 29 mM potassium phosphate monobasic, 29 mM potassium phosphate dibasic, 17 mM ammonium sodium phosphate dibasic, 40 mM sodium fumarate dibasic, 0.1% (wt/vol) casamino acids, and either 20 mM choline chloride or 3 g/L glycerol. This mixture was supplemented with 1 mM magnesium sulfate, 1% ATCC vitamin supplement, and 1% ATCC trace mineral supplement.
Compounds from the Institute of Chemistry and Cell Biology-Longwood Screening Facility (ICCB-L) commercial ChemDiv7 library were transferred to 384-well plates at 5 mg/mL in DMSO.
E. coli was grown anaerobically in LB media containing 1 mM choline chloride overnight at 37°C and then resuspended (two log-fold dilution) in either NCE media supplemented with 20 mM choline or 3 g/L glycerol for screening. The E. coli cultures were then added to the compound plates and incubated at 37°C anaerobically. The final concentration of compounds in culture was 20 µg/mL. OD600 was measured at 7 h and 20 h in duplicate compound plates. For control, 60 µg/mL kanamycin was used. Z-scores of each compound were calculated by measuring the number of standard deviations of each well’s OD600 with respect to the plate’s mean OD600. Compounds with a Z-score of less than –2 on choline but more than or equal to 0 on glycerol, in at least one replicate plate, were selected for further validation. Z’ was calculated using the control columns, as an internal quality control.

E. coli MS 200-1 [2] = test: TMA inhibition in bacterial whole cells (LC–MS/MS of d9-TMA from d9-choline); type: cell-based, Escherichia coli MS 200-1; conditions: Escherichia coli, MS2001, 1.25 h; 1 mM d9-choline in PBS, 75 min, 37°C, anaerobic
Description: For TMA inhibition assays, E. coli and P. mirabilis were grown in NCE medium supplemented with 20 mM choline chloride, A. hydrogenalis was grown in MEGA medium supplemented with 3 mM choline chloride, and C. sporogenes was grown in BHI medium supplemented with 20 mM of choline chloride to induce expression of the cut gene cluster. For MIC assays, all bacteria strains were grown in MEGA medium.
Compounds were stored as 10 mM DMSO stocks at –20°C and diluted in DMSO to prepare varying concentrations of inhibitors for testing. Bacteria were grown anaerobically overnight in media supplemented with choline as described above. Cells were pelleted and resuspended in PBS, and d9-choline chloride was added to a final concentration of 1 mM. The final OD600 of the PBS cell resuspensions is as follows: 0.4 (E. coli), 0.15–0.2 (P. mirabilis), 0.2 (C. sporogenes), and 0.4 (A. hydrogenalis). The resuspended cells were added to 96-well plates containing inhibitors (final concentration of 1% DMSO, with final inhibitor concentrations ranging between 0 and 325 µM). The plates were sealed and incubated for 75 min (or 90 min for P. mirabilis) at 37°C. Following incubation, the plates were removed from the anaerobic chamber and analyzed immediately or kept at –20°C until LC–MS/MS analysis. Each inhibitor concentration was tested in triplicate. EC50 values were calculated with GraphPad Prism by fitting the log(inhibitor) vs response—Variable slope (four-parameter) model for non-linear regression.
Samples were kept frozen until analysis and kept cold on ice during handling due to the volatility of TMA. Bacterial cell resuspensions in PBS were diluted 100-fold in LCMS-grade acetonitrile with 0.1% formic acid to lyse cells, precipitate proteins, and extract metabolites. Samples were centrifuged at 4,000 rpm for 10 min at 4°C to pellet proteins. The supernatants were then further diluted 20-fold in LCMS-grade acetonitrile with 0.1% formic acid, and the resulting solution was analyzed by LC–MS/MS.
LC–MS/MS analysis was performed on an Agilent 1290/6470 Triple Quadrupole LC–MS instrument (Agilent Technologies) using electrospray ionization. The mass spectrometer was operated in multiple reaction monitoring (MRM) mode with positive ionization monitoring. The precursor–product ion pairs used in MRM mode were as follows: m/z 69.1m/z → 49.1 (d9-TMA) and m/z 113.2 m/z → 69.1 (d9-choline). The capillary voltage was set to 4.0 kV, and the fragmentor voltage was set to 30 V (d9-TMA) and 115 V (d9-choline). The collision energy for the precursor–product ion pairs was set to 29 V (d9-TMA) and 21 V (d9-choline). MS^1 resolution was set to wide and MS^2 resolution to unit. The drying gas temperature was maintained at 250°C, with a flow rate of 11 L/min and a nebulizer pressure of 45 psi. The time filter width used was 0.07 min. The injection volume of all samples was 1 μL. Samples were injected onto InfinityLab Poroshell 120 (Agilent) HILIC columns (2.7 μm, 100 mm × 2.1 mm, 100 Å) preceded by InfinityLab Poroshell 120 HILIC guard columns (2.1 mm, 1.9µm UHPLC guard). The LC conditions on the binary pump were as follows: a gradient of 5–35% A increasing over 1.95 min (1.2 mL/min), a gradient of 35–5% A decreasing over 0.05 min (1.6 mL/min), and held at 5% A for 0.5 min (2 mL/min). […] Solvent A was 10 mM ammonium formate with 0.1% formic acid, and solvent B was acetonitrile with 0.1% formic acid. Data analysis was performed with Mass Hunter Workstation Data Acquisition and Qualitative Analysis software (Agilent Technologies).

[3] = first value of cell (replicate plate)
[4] = second value of cell (replicate plate)

Cc1ccc(-c2cc(C(=O)NCCCN3CCc4ccccc4C3)c(C)[nH]2)cc1C [Compound 5]
Z-score from HTS, Zcho at T1 (E. coli MS 200-1 [1]; [3]): −4.27
Z-score from HTS, Zcho at T1 (E. coli MS 200-1 [1]; [4]): –4.23
Z-score from HTS, Zcho at T2 (E. coli MS 200-1 [1]; [3]): 0.16
Z-score from HTS, Zcho at T2 (E. coli MS 200-1 [1]; [4]): –0.06
Z-score from HTS, Zgly at T1 (E. coli MS 200-1 [1]; [3]): −1.42
Z-score from HTS, Zgly at T1 (E. coli MS 200-1 [1]; [4]): 0.61
Z-score from HTS, Zgly at T2 (E. coli MS 200-1 [1]; [3]): 0.83
Z-score from HTS, Zgly at T2 (E. coli MS 200-1 [1]; [4]): 1.41
EC50 (E. coli MS 200-1 [2]): 12 µM

Reference: publication PMC12977544, “Phenotypic high-throughput screening identifies modulators of gut microbial choline metabolism” (mBio, 2026)
